Reference: the PolyMetriX glass transition set
± gives the standard deviation of the reports.

SMILES	glass transition temperature [°C]
*c1ccc(Oc2ccc(-c3nc4cc(Oc5ccc(NC(=O)c6ccc7c(c6)C(=O)N(c6ccc(C(c8ccc(N9C(=O)c%10ccc(C(=O)Nc%11ccc(Oc%12ccc%13nc(-c%14ccc([N+](=O)[O-])cc%14)c(*)nc%13c%12)cc%11)cc%10C9=O)cc8)(C(F)(F)F)C(F)(F)F)cc6)C7=O)cc5)ccc4nc3-c3ccc([N+](=O)[O-])cc3)cc2)cc1 (repeat unit)	303.00
*CC(CCCC)C(CCCC)COC(=O)c1ccc(C(=O)O*)cc1 (repeat unit)	16.00
*c1ccc(-c2ccc(N3C(=O)c4ccc(Oc5ccc6c(c5)C(=O)N(*)C6=O)cc4C3=O)cc2C)c(C)c1 (repeat unit)	325.00
*Nc1cccc(NC(=O)CCCCCCCCC(*)=O)c1 (repeat unit)	110.00
*CCCCCCNC(=O)CC(C)(C)c1ccc(C(C)(C)CC(=O)N*)cc1 (repeat unit)	91.00
*c1cc(C(c2ccc(OCCN(C)c3ccc(/C=C/C4=CC(=C(/C#N)S(C)(=O)=O)/CC(C)(C)C4)cc3)c(N3C(=O)c4ccc(Oc5ccc6c(c5)C(=O)N(*)C6=O)cc4C3=O)c2)(C(F)(F)F)C(F)(F)F)ccc1OCCN(C)c1ccc(/C=C/C2=CC(=C(/C#N)S(C)(=O)=O)/CC(C)(C)C2)cc1 (repeat unit)	225.00
*c1ccc(Cc2ccc(N3C(=O)c4c(c(-c5ccccc5)c(-c5ccc(Oc6ccc(-c7c(-c8ccccc8)c8c(c(-c9ccccc9)c7-c7ccccc7)C(=O)N(*)C8=O)cc6)cc5)c(-c5ccccc5)c4-c4ccccc4)C3=O)cc2)cc1 (repeat unit)	356.00
*CC(*)(C)C(=O)OCc1cccc(Cl)c1Cl (repeat unit)	42.60
*C(=O)OCC(C)(C)CS(=O)(=O)CC(C)(C)COC(=O)N1CC(C)N(*)CC1C (repeat unit)	85.00
*Oc1ccc(S(=O)(=O)c2ccc(Oc3c(C)cc(-c4cc(C)c(*)c(C)c4)cc3C)cc2)cc1 (repeat unit)	280.20
*/C(=C(/*)c1ccc(Oc2ccccc2)cc1)c1ccccc1 (repeat unit)	200.00
*c1cccc(P(=O)(c2cccc(-n3c(=O)c4c(-c5ccc(C(F)(F)F)cc5)c5c(=O)n(*)c(=O)c5c(-c5ccc(C(F)(F)F)cc5)c4c3=O)c2)c2cc(C(F)(F)F)cc(C(F)(F)F)c2)c1 (repeat unit)	310.00
*CCN(CCOC(=O)NCCCCCCNC(=O)O*)c1ccccc1 (repeat unit)	31.90
*c1c(C)cc(Cc2cc(C)c(N3C(=O)c4ccc(Oc5ccc(C(C)(C)c6ccc(Oc7ccc8c(c7)C(=O)N(*)C8=O)cc6)cc5)cc4C3=O)c(C)c2)cc1C (repeat unit)	247.00
*C(=O)c1ccc2c(c1)C(=O)N(c1cccc(Cc3ccc(C(=O)c4ccc(N5C(=O)c6ccc(*)cc6C5=O)cc4)cc3)c1)C2=O (repeat unit)	254.00
*CCCN(*)C (repeat unit)	-37.50
*c1cc(C(=O)OCCCCC)cc(N2C(=O)CC(C3Cc4ccccc4C4C(=O)N(*)C(=O)C43)C2=O)c1 (repeat unit)	219.00
*c1cccc(C(=O)Nc2ccc(Oc3ccc(-c4ccc(Oc5ccc(NC(=O)c6cccc(N7C(=O)c8ccc(-c9cccc%10c9C(=O)N(*)C%10=O)cc8C7=O)c6)cc5)cc4)cc3)cc2)c1 (repeat unit)	275.00
*Oc1cc(C)c(C(c2cc(C(C)C)c(Oc3ccc(C(=O)c4ccc(*)cc4)cc3)cc2C)c2ccccc2C(=O)O)cc1C(C)C (repeat unit)	228.00
*Oc1cccc(NC(=O)c2cccc(C(=O)Nc3ccc(Oc4ccc(C(=O)c5ccc(*)cc5)cc4)cc3)c2)c1 (repeat unit)	114.00
*CCCCOC(=O)/C=C/C(=O)O* (repeat unit)	93.00

SMILES	glass transition temperature [°C]
*Oc1ccc(OC(=O)c2ccc(OCCCCCCOc3ccc(C(*)=O)cc3)cc2)cc1/N=N/c1ccc(C#N)cc1 (repeat unit)	98.00
*c1cccc(P(=O)(c2ccc(C(F)(F)F)cc2)c2cccc(-n3c(=O)c4cc5c(=O)n(*)c(=O)c5cc4c3=O)c2)c1 (repeat unit)	311.00
*Oc1ccc(/C(=N/c2ccc(/N=C(\c3ccccc3)c3ccc(Oc4ccc(C(c5ccccc5)(c5ccccc5)c5ccc(*)cc5)cc4)cc3)cc2)c2ccccc2)cc1 (repeat unit)	198.00
*Oc1ccc(Oc2ccc(S(=O)(=O)c3ccc(-c4ccc(-c5ccc(S(=O)(=O)c6ccc(*)cc6)cc5)cc4)cc3)cc2)cc1 (repeat unit)	259.00
*C#CC#Cc1cc(C(C)(C)C)cc2c3cc(C(C)(C)C)cc(*)c3n(CCCCCCCCCCCCCCCC)c12 (repeat unit)	67.00
*Oc1ccc(OC(=O)c2cc(OCCCCCCCCCCCC)c(C(*)=O)cc2OCCCCCCCCCCCC)cc1C (repeat unit)	112.00
*CCCC(=O)O* (repeat unit)	1.50
*C(=O)NCCNC(=O)c1ccc(N2C(=O)c3ccc(*)cc3C2=O)cc1 (repeat unit)	235.00
*CCCCCCCCCCOC(=O)CCCCCCC(=O)O* (repeat unit)	-22.00
*OCCOC(=O)CCCC(=O)OCCOc1nc(-c2ccc(OCCCC)cc2)nc(*)c1-c1ccc(OC)cc1 (repeat unit)	46.00
*C(=O)Nc1ccc(Cc2ccc(N3C(=O)CC(N4C(=O)c5ccc(*)cc5C4=O)C3=O)cc2)cc1 (repeat unit)	123.00
*CC(*)C(=O)Oc1ccc(-c2ccccc2)cc1 (repeat unit)	110.00
*c1cccc(C(=O)c2ccc(Oc3ccc(N4C(=O)c5ccc(Oc6ccc7c(c6)C(=O)N(*)C7=O)cc5C4=O)cc3C(F)(F)F)cc2)c1 (repeat unit)	224.00
*Cc1ccc(C(C)(CC)c2ccc(Cn3c(=O)c4cc5c(=O)n(*)c(=O)c5cc4c3=O)o2)o1 (repeat unit)	143.00
*CC(*)C(N)=O (repeat unit) [Poly(acrylamide)]	178.92 ± 20
*Oc1ccc(C2(c3ccc(Oc4ccc(C(=O)c5cccc(C(=O)c6ccc(*)cc6)c5)cc4)cc3)c3ccccc3-c3ccccc32)cc1 (repeat unit)	223.00
*Oc1cccc(C(=O)OCC(F)(F)C(F)(F)C(F)(F)COC(=O)c2cccc(*)c2)c1 (repeat unit)	20.00
*CC(*)c1ccc(C(=O)OC)cc1 (repeat unit) [Poly(p-methoxycarbonyl styrene) ]	113 ± 5.6
*CCOC(=O)c1ccc(-c2ccc(C(=O)O*)cc2C)c(C)c1 (repeat unit)	73.00
*C(=O)NCCCCCCNC(=O)c1ncn(C)c1* (repeat unit)	86.00
*CC(CC(*)(C#N)C#N)c1ccc(F)cc1 (repeat unit)	180.00

SMILES	glass transition temperature [°C]
*=Nc1cccc(/N=C(/C=C/C(=*)c2ccccc2)c2ccccc2)c1 (repeat unit)	178.00
*Oc1cccc(NC(=O)CCCCCCCCCCC(=O)Nc2ccc(*)cc2)c1 (repeat unit)	110.00
*Oc1cccc2ccc(Oc3ccc(NC(=O)c4ccc(Oc5ccccc5Oc5ccc(C(=O)Nc6ccc(*)cc6)cc5)cc4)cc3)cc12 (repeat unit)	180.00
*c1ccc(Oc2ccc(C(=O)c3ccc(Oc4ccc(-c5nc(-c6ccccc6)[nH]c5*)cc4)cc3)cc2)cc1 (repeat unit)	259.00
*CC(*)C(=O)OCCOc1ccc(C(=O)Oc2ccc(OC)cc2)cc1 (repeat unit)	70.00
*c1cccc(N2C(=O)c3ccc(Oc4ccc(Sc5ccc(Oc6ccc7c(c6)C(=O)N(*)C7=O)cc5)cc4)cc3C2=O)c1 (repeat unit)	209.00
*c1ccc(Oc2ccc3ccccc3c2-c2c(Oc3ccc(N4C(=O)c5ccc(NC(=O)Nc6ccc(-c7cc(-c8ccc(-c9ccccc9)cc8)cc(-c8ccc(NC(=O)Nc9ccc%10c(c9)C(=O)N(*)C%10=O)cc8)n7)cc6)cc5C4=O)cc3)ccc3ccccc23)cc1 (repeat unit)	302.00
*C(=O)Nc1cccc(Oc2cccc(Oc3cccc(NC(=O)c4ccc5c(c4)C(=O)N(c4cccc(Oc6cccc(Oc7cccc(N8C(=O)c9ccc(*)cc9C8=O)c7)c6C#N)c4)C5=O)c3)c2C#N)c1 (repeat unit)	214.00
*Oc1ccc(C(=O)c2cccc(C(=O)c3ccc(*)c(C(C)C)c3)c2)cc1CC (repeat unit)	136.00
*CC(C)(C)COC(=O)Cc1ccc(C(=O)O*)cc1 (repeat unit)	33.00
*C(=O)Nc1ccc(NC(=O)c2ccc3c(c2)C(=O)N(c2ccc(NC(=O)Nc4ccc(N5C(=O)c6ccc(*)cc6C5=O)cc4)cc2)C3=O)cc1 (repeat unit)	216.00
*CCN(CCOC(=O)c1ccc(C(=O)O*)cc1)c1ccc(C=C(C#N)C#N)cc1 (repeat unit)	127.00
*/C=C/CC(C*)c1ccccc1 (repeat unit)	14.00
*CC(=O)Nc1ccc(Oc2cccc(Oc3ccc(NC(=O)c4ccc5c(c4)C(=O)N(*)C5=O)cc3)c2)cc1 (repeat unit)	220.00
*c1ccc(OC(=O)c2cccc(C(=O)Oc3ccc(-c4nc5ccccc5nc4*)cc3)c2)cc1 (repeat unit)	245.00
*c1ccc2c(c1)C(=O)N(c1cccc(N3C(=O)c4ccc(C(*)(C(F)(F)F)C(F)(F)F)cc4C3=O)c1)C2=O (repeat unit)	298.00 ± 3.2
*c1ccc(Oc2ccc(-c3ccc(Oc4ccc(N5C(=O)c6ccc(Oc7ccc(C(c8ccc(Oc9ccc%10c(c9)C(=O)N(*)C%10=O)cc8)(C(F)(F)F)C(F)(F)F)cc7)cc6C5=O)cc4)cc3)cc2)cc1 (repeat unit)	217.00
*c1ccc(Oc2ccc(C(C)(C)c3ccc(Oc4ccc(-c5nnc(*)c6c(-c7ccc(F)cc7)c(-c7ccc(F)cc7)c(-c7ccc(F)cc7)c(-c7ccc(F)cc7)c56)cc4)cc3)cc2)cc1 (repeat unit)	282.00
*CC(C)(C)COC(=O)CCCCC(=O)O* (repeat unit)	-31.5
